Legend:
ROCK2 = ROCK2 (Homo sapiens, UniProt O75116); test: ROCK2 kinase IC50 assay (CISBIO HTRF KinEASE-STK S2 kit); type: biochemical; settings: incubated at room temperature for 2 hours
Summary of the method: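 HTRF KinEASE-STK S2 format with recombinant ROCK2 (1.4 ng per well), STK-S2 substrate and ATP from 5× working solutions of 1.5 μM each, run 2 h at room temperature. Nine-point dilutions from 10000 nM top concentration; 665/615 nm emission ratio normalised to no-compound and no-kinase controls, curve-fitted for IC50.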

ROCK1 = ROCK1 (Homo sapiens (Human), UniProt Q13464); test: ROCK1 kinase IC50 assay (biological test method similar to the ROCK2 assay); type: biochemical
Chain of ROCK1 (Q13464 whole entry, species assumed): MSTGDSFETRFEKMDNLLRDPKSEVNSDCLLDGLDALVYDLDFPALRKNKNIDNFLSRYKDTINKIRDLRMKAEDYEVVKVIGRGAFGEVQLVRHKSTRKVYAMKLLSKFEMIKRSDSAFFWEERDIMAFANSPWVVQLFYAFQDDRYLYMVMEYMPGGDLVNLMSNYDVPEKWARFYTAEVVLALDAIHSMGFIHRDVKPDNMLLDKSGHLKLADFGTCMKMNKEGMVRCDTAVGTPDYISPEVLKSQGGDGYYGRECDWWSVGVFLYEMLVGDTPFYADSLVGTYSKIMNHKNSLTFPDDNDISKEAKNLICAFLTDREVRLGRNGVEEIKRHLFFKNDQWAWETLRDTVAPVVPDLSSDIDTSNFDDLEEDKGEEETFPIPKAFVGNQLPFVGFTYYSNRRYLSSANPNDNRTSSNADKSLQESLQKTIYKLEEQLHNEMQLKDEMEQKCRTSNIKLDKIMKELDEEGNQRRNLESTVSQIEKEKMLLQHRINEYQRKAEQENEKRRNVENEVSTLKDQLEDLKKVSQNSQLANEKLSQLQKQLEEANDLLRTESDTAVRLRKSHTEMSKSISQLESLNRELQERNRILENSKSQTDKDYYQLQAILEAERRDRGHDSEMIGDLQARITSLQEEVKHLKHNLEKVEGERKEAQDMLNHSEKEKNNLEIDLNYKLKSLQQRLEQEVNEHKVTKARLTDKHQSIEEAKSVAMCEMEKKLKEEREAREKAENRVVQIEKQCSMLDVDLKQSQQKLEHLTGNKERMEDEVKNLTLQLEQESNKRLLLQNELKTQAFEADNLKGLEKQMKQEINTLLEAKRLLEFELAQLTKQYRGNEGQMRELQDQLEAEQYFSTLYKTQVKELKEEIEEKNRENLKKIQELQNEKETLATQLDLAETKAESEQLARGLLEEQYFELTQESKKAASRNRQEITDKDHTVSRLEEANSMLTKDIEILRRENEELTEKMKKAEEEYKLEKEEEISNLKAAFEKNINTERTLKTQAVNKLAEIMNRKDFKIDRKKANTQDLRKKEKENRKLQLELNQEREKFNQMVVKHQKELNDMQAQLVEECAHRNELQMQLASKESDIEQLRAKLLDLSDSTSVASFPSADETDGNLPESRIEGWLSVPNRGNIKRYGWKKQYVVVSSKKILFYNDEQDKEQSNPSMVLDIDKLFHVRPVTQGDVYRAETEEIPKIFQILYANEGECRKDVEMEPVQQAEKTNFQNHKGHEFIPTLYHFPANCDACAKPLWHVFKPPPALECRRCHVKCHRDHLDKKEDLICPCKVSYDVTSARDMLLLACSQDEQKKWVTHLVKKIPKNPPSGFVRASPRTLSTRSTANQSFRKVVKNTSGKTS
Summary of the method: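 Compound dilution series (9 concentrations, top solution 10000 nM, DMSO-containing buffer) incubated 2 h at room temperature with kinase, STK-S2 substrate and ATP (5× working solutions of 1.5 µM each). Phosphorylation detected by HTRF (665/615 nm emission ratio) after 1 h; inhibition relative to full-reaction and kinase-free wells, fitted for IC50.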

Row | SMILES | IC50 (ROCK2) | IC50 (ROCK1)
1 | c1cc(Nc2ccc(-c3cn[nH]c3)nc2)nc(-c2ccc3cc(-c4nccs4)[nH]c3c2)n1 [TDI01940, N-(6-(1H-pyrazol-4-yl)pyridin-3-yl)-2-(2-(thiazol-2-yl)-1H-indol-6-yl)pyrimidin-4-amine] | 147 nM | > 10 µM
2 | O=C(NC1CC(F)(F)C1)N1Cc2ccc(-c3nccc(Nc4ccc(-c5cn[nH]c5)cc4)n3)cc2C1 [TDI01951, 5-(4-((4-(1H-pyrazol-4-yl)phenyl)amino)pyrimidin-2-yl)-N-(3,3-difluorocyclobutyl) isoindoline-2-carboxamide] | 27 nM | > 10 µM
3 | O=C(N1CCc2cc(-c3nccc(Nc4ccc(-c5cn[nH]c5)cc4)n3)ccc2C1)N1CC(F)(F)C1 [TDI01959, (6-(4-((4-(1H-pyrazol-4-yl)phenyl)amino)pyrimidin-2-yl)-3,4-dihydroisoquinolin-2(1H)-yl)(3,3-difluoroazetidin-1-yl)methanone] | 131 nM | > 10 µM
4 | O=C(C1CC(F)(F)C1)N1Cc2ccc(-c3nccc(Nc4ccc5[nH]ncc5c4)n3)cc2C1 [TDI01967, (5-(4-((1H-indazol-5-yl)amino)pyrimidin-2-yl)isoindolin-2-yl)(3,3-difluorocyclobutyl) methanone] | 45 nM | > 10 µM
5 | CN1CCC[C@H]1C(=O)N1Cc2ccc(-c3nccc(Nc4ccc(-c5cn[nH]c5)cc4)n3)cc2C1 [TDI01968A, 5-(4-((4-(1H-pyrazol-4-yl)phenyl)amino)pyrimidin-2-yl)-2-(methyl-L-prolyl)isoindoline] | 296 nM | > 10 µM
6 | CN1CCc2nc(C(=O)N3Cc4ccc(-c5nccc(Nc6ccc(-c7cn[nH]c7)cc6)n5)cc4C3)sc2C1 [TDI01973, (5-(4-((4-(1H-pyrazol-4-yl)phenyl)amino)pyrimidin-2-yl)isoindolin-2-yl)(5-methyl-4,5,6,7-tetrahydrothiazolo[5,4-c]pyridin-2-yl)methanone] | 52 nM | > 10 µM
7 | CN(C)C(=O)N1Cc2ccc(-c3nc(Nc4ccc(-c5cn[nH]c5)cc4)c4occc4n3)cc2C1 [TDI01974, 5-(4-((4-(1H-pyrazol-4-yl)phenyl)amino)furo[3,2-d]pyrimidin-2-yl)-N,N-dimethylisoindoline-2-carboxamide] | 186 nM | > 10 µM
8 | O=C(C1CC(F)(F)C1)N1Cc2ccc(-c3nccc(Nc4ccc(-c5cn[nH]c5)cn4)n3)cc2C1 [TDI01979, (5-(4-((5-(1H-pyrazol-4-yl)pyridin-2-yl)amino)pyrimidin-2-yl)isoindolin-2-yl)(3,3-difluorocyclobutyl)methanone] | 137 nM | > 10 µM
9 | CC(O)C(=O)N1Cc2ccc(-c3nccc(Nc4ccc(-c5cn[nH]c5)cc4)n3)cc2C1 (centres unmarked) [TDI01989, 1-(5-(4-((4-(1H-pyrazol-4-yl)phenyl)amino)pyrimidin-2-yl)isoindolin-2-yl)-2-hydroxypropan-1-one] | 385 nM | > 10 µM

More lines, now with the values ahead:

Row | IC50 (ROCK2) | IC50 (ROCK1) | SMILES
10 | 200 nM | > 10 µM | COCn1c(C(=O)N2CC(F)(F)C2)cc2ccc(-c3nccc(Nc4ccc(-c5cn[nH]c5)cc4)n3)cc21 [TDI01920, (6-(4-((4-(1H-pyrazol-4-yl)phenyl)amino)pyrimidin-2-yl)-1-(methoxymethyl)-1H-indol-2-yl)(3,3-difluoroazetidin-1-yl)methanone]
11 | 50 nM | > 10 µM | C=Cn1c(C(=O)N2CC(F)(F)C2)cc2ccc(-c3nccc(Nc4ccc(-c5cn[nH]c5)cc4)n3)cc21 [TDI01923, (6-(4-((4-(1H-pyrazol-4-yl)phenyl)amino)pyrimidin-2-yl)-1-vinyl-1H-indol-2-yl)(3,3-difluoroazetidin-1-yl)methanone]
12 | 88 nM | > 10 µM | Cn1c(C(=O)N2CC(F)(F)C2)cc2ccc(-c3nc(Nc4ccc(-c5cn[nH]c5)cc4)c4ccsc4n3)cc21 [TDI01947, (6-(4-((4-(1H-pyrazol-4-yl)phenyl)amino)thieno[2,3-d]pyrimidin-2-yl)-1-methyl-1H-indol-2-yl)(3,3-difluoroazetidin-1-yl)methanone]
13 | 103 nM | > 10 µM | Cn1c(C(=O)N2CC(F)(F)C2)cc2ccc(-c3nc(Nc4ccc(-c5cn[nH]c5)cc4)c4cccn4n3)cc21 [TDI01948, (6-(4-((4-(1H-pyrazol-4-yl)phenyl)amino)pyrrolo[2,1-f][1,2,4]triazin-2-yl)-1-methyl-1H-indol-2-yl)(3,3-difluoroazetidin-1-yl)methanone]
14 | 59 nM | > 10 µM | Cn1c(C(=O)N2CC(F)(F)C2)cc2ccc(-c3ncc(Cl)c(Nc4ccc(-c5cn[nH]c5)cc4)n3)cc21 [TDI01949, (6-(4-((4-(1H-pyrazol-4-yl)phenyl)amino)-5-chloropyrimidin-2-yl)-1-methyl-1H-indol-2-yl)(3,3-difluoroazetidin-1-yl)methanone]
15 | 33 nM | > 10 µM | Cc1[nH]ncc1-c1ccc(Nc2ccnc(-c3ccc4cc(C(=O)N5CC(F)(F)C5)n(C)c4c3)n2)cc1 [TDI01955, (3,3-difluoroazetidin-1-yl)(1-methyl-6-(4-((4-(5-methyl-1H-pyrazol-4-yl)phenyl)amino)pyrimidin-2-yl)-1H-indol-2-yl)methanone]
16 | 50 nM | > 10 µM | Cn1c(C(=O)N2CC(F)(F)C2)cc2ccc(-c3nc4c(c(Nc5ccc(-c6cn[nH]c6)cc5)n3)CCC4)cc21 [TDI01960, (6-(4-((4-(1H-pyrazol-4-yl)phenyl)amino)-6,7-dihydro-5H-cyclopenta[d]pyrimidin-2-yl)-1-methyl-1H-indol-2-yl)(3,3-difluoroazetidin-1-yl)methanone]
